Consider 15 molecules from ChEMBL document CHEMBL3045572, “Mitochondrial impacts of insecticidal formate esters in insecticide-resistant and insecticide-susceptible Drosophila melanogaster” (Pest Manag Sci, 2009).

Assay [1] deals with Drosophila melanogaster. Briefly: Inhibition of cytochrome c oxidase in insecticide-resistance Drosophila melanogaster Hikone-R mitochondria at 100 mM using reduced cytochrome c as substrate by microplate spectrophotometer analysis.
The subject of assay [2] is Drosophila melanogaster. Briefly: Disruption of mitochondria in insecticide-susceptible Drosophila melanogaster Hikone-R assessed as increase in cytochrome c release from mitochondria to cytosol at 1 mM by western blot analysis. Format: functional, organism-based.
Assay [3] deals with Drosophila melanogaster. Briefly: Inhibition of cytochrome c oxidase in insecticide-susceptible Drosophila melanogaster Canton-S mitochondria at 100 mM using reduced cytochrome c as substrate by microplate spectrophotometer analysis.
Assay [4] has as its system Drosophila melanogaster. The assay can be described thus: Disruption of mitochondria in insecticide-susceptible Drosophila melanogaster Canton-S assessed as increase in cytochrome c release from mitochondria to cytosol at 1 mM by western blot analysis. Format: functional, organism-based.
The nature of assay [5]: Inhibition of cytochrome c oxidase in insecticide-susceptible Drosophila melanogaster Canton-S mitochondria using reduced cytochrome c as substrate by microplate spectrophotometer analysis.
Assay [6] concerns Drosophila melanogaster. Particulars: Hikone-R, Mitochondria, 10 mM.
Description: Inhibition of cytochrome c oxidase in insecticide-resistance Drosophila melanogaster Hikone-R mitochondria at 10 mM using reduced cytochrome c as substrate by microplate spectrophotometer analysis
Assay [7] deals with Drosophila melanogaster. Particulars: Canton-S, Mitochondria, 10 mM.
Description: Inhibition of cytochrome c oxidase in insecticide-susceptible Drosophila melanogaster Canton-S mitochondria at 10 mM using reduced cytochrome c as substrate by microplate spectrophotometer analysis
Assay [8] can be described thus: Inhibition of cytochrome c oxidase in insecticide-resistance Drosophila melanogaster Hikone-R mitochondria using reduced cytochrome c as substrate by microplate spectrophotometer analysis.

Molecules are shown by their SMILES. Activity calls are given as the source filed them. No cut-off for these calls is given here.

With `O=COCCOC=O`, the inhibition in the assay with Drosophila melanogaster [1] and in the assay with Drosophila melanogaster [3] was < 8% in each case. The outcome in the assay on Drosophila melanogaster [2] and in the assay on Drosophila melanogaster [4] was Active.
In the case of `O=C[O-].[Na+]` [SODIUM FORMATE], the IC50 in assay [5] and in assay [8] was > 100 mM in each case. The outcome with Drosophila melanogaster [2] and with Drosophila melanogaster [4] was Active. The inhibition in the assay with Drosophila melanogaster [6] and in the assay on Drosophila melanogaster [7] was 3% each time.
Consider `CC(C)(C)OC=O`, for which the inhibition in the assay with Drosophila melanogaster [1] and with Drosophila melanogaster [3] was < 8% throughout. Moreover, the outcome with Drosophila melanogaster [2] and in the assay on Drosophila melanogaster [4] was Active.
With `COC=O`, the inhibition in the assay with Drosophila melanogaster [1] and in the assay with Drosophila melanogaster [3] was < 8% each time. For the same molecule, the result with Drosophila melanogaster [2] and with Drosophila melanogaster [4] was Active.
As for `CCCCCCOC=O`, the inhibition with Drosophila melanogaster [1] and with Drosophila melanogaster [3] was < 8% each time. For the same molecule, the result in the assay with Drosophila melanogaster [2] and with Drosophila melanogaster [4] was Active.
Consider `CCCCCC[C@H]1C(=O)O[C@H](C)[C@H](NC(=O)c2cccc(NC=O)c2O)C(=O)O[C@@H](C)[C@@H]1OC(=O)CC(C)C`, for which the result in the assay with Drosophila melanogaster [2] and in the assay with Drosophila melanogaster [4] was Active.
Consider `CCOC=O`, for which the inhibition in the assay on Drosophila melanogaster [1] and in the assay on Drosophila melanogaster [3] was < 8% throughout. For the same molecule, the result with Drosophila melanogaster [2] and in the assay on Drosophila melanogaster [4] was Active.
In the case of `CCCCOC=O`, the inhibition in the assay with Drosophila melanogaster [1] and with Drosophila melanogaster [3] was < 8% throughout. Also, the outcome in the assay with Drosophila melanogaster [2] and in the assay on Drosophila melanogaster [4] was Active.
With `[N-]=[N+]=[N-]` [SODIUM AZIDE], the IC50 in assay [5] and in assay [8] was > 16 mM in each case.
Consider `CC(=O)[O-].[Na+]` [SODIUM ACETATE], for which the half-maximal inhibitory concentration (IC50) in assay [5] and in assay [8] was > 100 mM each time.
Take `CCCOC=O`: the inhibition with Drosophila melanogaster [1] and in the assay on Drosophila melanogaster [3] was < 8% each time. In addition, the outcome with Drosophila melanogaster [2] and with Drosophila melanogaster [4] was Active.
For the molecule `C=C(C)[C@H]1Cc2c(ccc3c2O[C@@H]2COc4cc(OC)c(OC)cc4[C@@H]2C3=O)O1`, the outcome with Drosophila melanogaster [2] and with Drosophila melanogaster [4] was Active.
For `CC1(C)CNC(=NN=C(/C=C/c2ccc(C(F)(F)F)cc2)/C=C/c2ccc(C(F)(F)F)cc2)NC1` [HYDRAMETHYLNON], the IC50 in assay [5] turned out to be 0.47 mM; in assay [8], 0.48 mM.
On to `CCCCCCCOC=O`, for which the inhibition in the assay with Drosophila melanogaster [1] and with Drosophila melanogaster [3] was < 8% each time. Further, the result in the assay with Drosophila melanogaster [2] and with Drosophila melanogaster [4] was Active.
With `CCC(=O)[O-].[Na+]` [SODIUM PROPIONATE], the IC50 in assay [5] and in assay [8] was > 100 mM in each case.
